System: potato dihydroorotase
Experiment: Measurement of the dihydroorotase activity (dihydroorotate-dehydrogenase-coupled photometric assay at 340 nm, or colorimetric assay)
Assay type: biochemical, Solanum tuberosum
Settings: activity measured in the assay systems described; recombinant enzyme expressed in E. coli
Text: The enzymatic detection developed to date for measuring the dihydroorotase activity by the method of Mazus and Buchowicz, (Acta Biochimica Polonica (1968), 15(4), 317-325) is based on detecting the orotate formed at 280 nm in a dihydroorotate-dehydrogenase-coupled reaction mixture. Prerequisite for doing so is a high activity of the auxiliary enzyme, viz. dihydroorotate dehydrogenase. […] In order to be able to carry out a mass screening, the specific dihydroorotate dehydrogenase activity must be at least ten times higher than is the case in the commercial preparation. […] The enzyme activity was determined in a photometric assay by measurement in a photometer (Uvikon 933, Kontron) at 340 nm. […] In each case […] of the resulting enzyme fraction was made up with buffer to […] and measured against a reference cell containing […] reaction buffer and 100 ml of a protein homogenate of untransformed E. coli culture. […] Identical quantities of total protein were employed for measuring the untransformed or transformed E. coli extracts. […] Alternatively, the dihydroorotase may also be measured in a less sensitive colorimetric assay by the method of Prescott and Jones (Anal. Biochem. (1969) 32, 408-419) without being coupled to dihydroorotate dehydrogenase. […]

| SMILES | potato dihydroorotase activity |
| --- | --- |
| O=C1NC(C(=O)O)=CC(C(=O)O)N1 (centres unmarked) [2-oxo-1,2,3,6-tetrahydropyrimidine-4,6-dicarboxylate] | can be reduced |
| O=C1NC(=S)C[C@@H](C(=O)O)N1 [6-L-thiodihydroorotate] | can be reduced |

Source: US7727753B2, “Plant dihydroorotase” (BASF Aktiengesellschaft, priority 1999, dated 2010)
